Earlier results, collected in patent publication US20110236473A1, “STABLE ALISKIREN FORMULATIONS” (Sanovel Ilac Sanayi Ve Ticaret Anonim Sirketi, priority 2010, published 2011).
Like-named read-outs stand apart in the source and are kept apart here.

Measured: solubility

COCCCOc1cc(C[C@@H](C[C@H](N)[C@@H](O)C[C@@H](C(=O)NCC(C)(C)C(N)=O)C(C)C)C(C)C)ccc1OC [Aliskiren hemifumarate, (2S,4S,5S,7S)-5-amino-N-(2-carbamoyl-2-methylpropyl)-4-hydroxy-2-isopropyl-7-[4-methoxy-3-(3-methoxypropoxy)benzyl]-8-methylnonamide]
freely soluble: in n-octanol | in phosphate buffer | in water
